Measured values as given in PubChem BioAssay (NCI).
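Tested at 5 concentrations; 48 h exposure; 96-well plates; endpoints linearly interpolated, else capped at highest concentration. GI50: concentration for 50% inhibition of growth. TGI: concentration producing complete growth inhibition.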

Tests used:
Experiment in all cases: inhibition of tumour cell growth, NCI panel, 48 h
ACHN renal = tested on: ACHN renal
HT29 colon = tested on: HT29 colon
SF-268 CNS = tested on: SF-268 CNS
NCI-H460 lung = tested on: NCI-H460 lung
HL-60(TB) leukemia = tested on: HL-60(TB) leukemia
LOX IMVI melanoma = tested on: LOX IMVI melanoma
SK-MEL-5 melanoma = tested on: SK-MEL-5 melanoma
SR leukemia = tested on: SR leukemia
RXF 393 renal = tested on: RXF 393 renal
OVCAR-4 ovarian = tested on: OVCAR-4 ovarian

Structure (SMILES): CNC(=O)c1cc(-c2ccc(F)cc2)cc(-c2ccc(S(=O)(=O)N3CCCC3)cc2)c1N
- GI50 (ACHN renal): 21.5 µM
- TGI (ACHN renal): > 25 µM
- GI50 (HT29 colon): 15.7 µM
- TGI (HT29 colon): > 25 µM
- GI50 (SF-268 CNS): > 25 µM
- TGI (SF-268 CNS): > 25 µM
- GI50 (NCI-H460 lung): 15.1 µM
- TGI (NCI-H460 lung): > 25 µM
- GI50 (HL-60(TB) leukemia): 7.41 µM
- TGI (HL-60(TB) leukemia): > 25 µM
- GI50 (LOX IMVI melanoma): > 25 µM
- TGI (LOX IMVI melanoma): > 25 µM
- GI50 (SK-MEL-5 melanoma): 12.9 µM
- TGI (SK-MEL-5 melanoma): > 25 µM
- GI50 (SR leukemia): > 25 µM
- TGI (SR leukemia): > 25 µM
- GI50 (RXF 393 renal): 14.7 µM
- TGI (RXF 393 renal): > 25 µM
- GI50 (OVCAR-4 ovarian): 16.1 µM
- TGI (OVCAR-4 ovarian): > 25 µM

Structure (SMILES): NC1=Nc2ccccc2Sc2ccccc21
- TGI (ACHN renal): > 100 µM
- TGI (HT29 colon): > 100 µM
- TGI (SF-268 CNS): > 100 µM
- TGI (NCI-H460 lung): > 100 µM
- TGI (HL-60(TB) leukemia): > 100 µM
- TGI (LOX IMVI melanoma): > 100 µM
- TGI (SK-MEL-5 melanoma): > 100 µM
- TGI (SR leukemia): > 100 µM
- TGI (RXF 393 renal): > 100 µM
- TGI (OVCAR-4 ovarian): > 100 µM

Structure (SMILES): COC(=O)C#CC(N)=O
- TGI (ACHN renal): > 100 µM
- TGI (HT29 colon): > 100 µM
- TGI (SF-268 CNS): > 100 µM
- TGI (NCI-H460 lung): > 100 µM
- TGI (HL-60(TB) leukemia): 19.8 µM
- TGI (LOX IMVI melanoma): > 50.4 µM
- TGI (SK-MEL-5 melanoma): > 100 µM
- TGI (SR leukemia): 60.7 µM
- TGI (RXF 393 renal): > 100 µM
- TGI (OVCAR-4 ovarian): > 100 µM

Structure (SMILES): C1CC[N-]CC1.CC(=N\O)/C(C)=N/O.CC(=N\O)/C(C)=N/O.C[CH-]C(C)O.[Co+2]
- GI50 (ACHN renal): 23.8 µM
- TGI (ACHN renal): 81.2 µM
- GI50 (HT29 colon): 34.3 µM
- TGI (HT29 colon): > 100 µM
- GI50 (SF-268 CNS): 29.4 µM
- TGI (SF-268 CNS): 95 µM
- GI50 (NCI-H460 lung): 16.8 µM
- TGI (NCI-H460 lung): 30.5 µM
- GI50 (HL-60(TB) leukemia): 14.5 µM
- TGI (HL-60(TB) leukemia): 45.7 µM
- GI50 (LOX IMVI melanoma): 17.8 µM
- TGI (LOX IMVI melanoma): 33.7 µM
- GI50 (SK-MEL-5 melanoma): 20.1 µM
- TGI (SK-MEL-5 melanoma): 43.1 µM
- GI50 (SR leukemia): 18.2 µM
- TGI (SR leukemia): 45 µM
- GI50 (RXF 393 renal): 15 µM
- TGI (RXF 393 renal): 43.8 µM
- GI50 (OVCAR-4 ovarian): 33.1 µM
- TGI (OVCAR-4 ovarian): > 100 µM

Structure (SMILES): CCOC(=O)N(O)c1ccc(/C=C/c2ccccc2)cc1
- GI50 (ACHN renal): 8.38 µM
- TGI (ACHN renal): > 93.7 µM
- GI50 (HT29 colon): 8.3 µM
- TGI (HT29 colon): 31.5 µM
- GI50 (SF-268 CNS): 18.2 µM
- TGI (SF-268 CNS): > 100 µM
- GI50 (NCI-H460 lung): 0.913 µM
- TGI (NCI-H460 lung): 15.6 µM
- GI50 (HL-60(TB) leukemia): 8.59 µM
- TGI (HL-60(TB) leukemia): 40.5 µM
- GI50 (LOX IMVI melanoma): 7.22 µM
- TGI (LOX IMVI melanoma): 20.6 µM
- GI50 (SK-MEL-5 melanoma): 3.85 µM
- TGI (SK-MEL-5 melanoma): 14.5 µM
- GI50 (SR leukemia): 4.1 µM
- TGI (SR leukemia): 28.2 µM
- GI50 (RXF 393 renal): 13.2 µM
- TGI (RXF 393 renal): > 90.4 µM
- GI50 (OVCAR-4 ovarian): 7.21 µM
- TGI (OVCAR-4 ovarian): > 84.2 µM

Structure (SMILES): COc1cc2c(=O)n(CC3CCCCC3)c3c4cc[nH]c4ncc3c2cc1OC
- GI50 (ACHN renal): 2.16 µM
- TGI (ACHN renal): 10.4 µM
- GI50 (HT29 colon): 2.85 µM
- TGI (HT29 colon): 15.2 µM
- GI50 (SF-268 CNS): 1.4 µM
- TGI (SF-268 CNS): 13.9 µM
- GI50 (NCI-H460 lung): 2.25 µM
- TGI (NCI-H460 lung): 9.41 µM
- GI50 (HL-60(TB) leukemia): 12.8 µM
- TGI (HL-60(TB) leukemia): > 50 µM
- GI50 (LOX IMVI melanoma): 2.3 µM
- TGI (LOX IMVI melanoma): 14.3 µM
- GI50 (SK-MEL-5 melanoma): 4.37 µM
- TGI (SK-MEL-5 melanoma): 25.9 µM
- GI50 (SR leukemia): 0.313 µM
- TGI (SR leukemia): > 50 µM
- GI50 (RXF 393 renal): 0.407 µM
- TGI (RXF 393 renal): 5.55 µM
- GI50 (OVCAR-4 ovarian): 1.1 µM
- TGI (OVCAR-4 ovarian): 10.3 µM

Structure (SMILES): CC(=O)OC1=C(CC(C)(C)C)C(=O)c2ccccc2C1=O
- TGI (ACHN renal): > 100 µM
- TGI (HT29 colon): > 100 µM
- TGI (SF-268 CNS): 74.9 µM
- TGI (NCI-H460 lung): 79.3 µM
- TGI (HL-60(TB) leukemia): 44.5 µM
- TGI (LOX IMVI melanoma): > 100 µM
- TGI (SK-MEL-5 melanoma): 51.3 µM
- TGI (SR leukemia): 50.7 µM
- TGI (RXF 393 renal): 82.7 µM
- TGI (OVCAR-4 ovarian): > 100 µM

Structure (SMILES): Cc1ccc(C)c(NC(=O)C(=O)Nn2c(=S)[nH]c3ccccc3c2=O)c1
- TGI (ACHN renal): > 100 µM
- TGI (HT29 colon): > 100 µM
- TGI (SF-268 CNS): > 100 µM
- TGI (NCI-H460 lung): > 100 µM
- TGI (HL-60(TB) leukemia): > 100 µM
- TGI (LOX IMVI melanoma): > 100 µM
- TGI (SK-MEL-5 melanoma): > 100 µM
- TGI (SR leukemia): > 100 µM
- TGI (RXF 393 renal): > 100 µM
- TGI (OVCAR-4 ovarian): > 100 µM
